Experimental data as given in patent US6498179B1, “Oxazole derivatives, their production and use” (Takeda Chemical Industries, Ltd., priority 1996, dated 2002).
Where two headings read alike, the source gives them in different places.

How the values were obtained:
MIN6 cells = assay: Insulinotropic effect on MIN6 cells; format: cell-based, mouse; details: compound 10 μM, 12.5 mM glucose, 2 hours, percentage of control
Procedure: MIN6 cells established from mouse beta cell tumor were cultured in DMEM supplemented with 15% fetal bovine serum on 12-well plate at 37° C. in 5% CO2, and were used at the stage of subconfluency. Cells were washed twice with PBS and incubated in Krebs-Ringer HEPES(KRH) containing with 0.1 mM glucose for 30 minutes. Then they were incubated in KRH containing with 12.5 mM glucose and 0.1% DMSO (control) or compound (10 μM) for 2 hours. Medium was collected and insulin concentration was measured using a commercial radioimmunoassay kit (Amarsham Inc.). The plate was washed once with PBS and cellular protein content was determined by the method of Lowrey et al. (J. Biol. Chem. 193, 265-275, 1951). Insulinotropic activity of the compound was indicated as percentage of control (Table 2).

KKA^y mice = assay: Test for blood sugar depression in mice; format: in vivo; details: Mus musculus, fasted male KKA^y mice, oral 30 mg/kg, compared with control group
Procedure: After being fasted for 20 hours, 9- to 12-week-old, male KKA^y mice (five mice in each group) were orally given the test compound at a dose of 30 mg/kg/10 ml through a stomach tube. Control mice were orally given 5% gum arabic solution. Blood samples (70 μl) were obtained from orbital venous plexus through capillary tube before and 60 and 120 minutes after the administration of the test compound. Blood glucose was determined according to a glucose oxidase method using a commercial kit (Iatrochem, GIU(A), Iatron Labs. Inc.). Blood glucose level at 60 or 120 minutes of the test groups was compared with that of control group, and was shown as blood glucose depression (%) (Table 1).

Row | Structure (SMILES) | melting point | Insulin secretion-promoting effect (%) (MIN6 cells) | inhibition in vivo at 30 mg/kg (KKA^y mice; 1 h, 60 minutes after administration, read-out: Degree of Blood Glucose Depression (%) After 60 minutes) | inhibition in vivo at 30 mg/kg (KKA^y mice; 2 h, 120 minutes after administration, read-out: Degree of Blood Glucose Depression (%) After 120 minutes)
1 | Cc1nccn1-c1nc(-c2ccc(Cl)cc2)c(CCCO)o1 [Example 36, 4-(4-chlorophenyl)-2-(2-methyl-1-imidazolyl)-5-oxazolepropanol] | – | 272% | 23% | 18%
2 | Cc1nccn1-c1nc(-c2ccc(Cl)cc2)c(CCCCO)o1 [Example 65, 4-(4-chlorophenyl)-2-(2-methyl-1-imidazolyl)-5-oxazolebutanol] | 110 to 111 °C | 397% | – | –
3 | Cc1nccn1-c1nc(-c2ccc(Cl)cc2)c(CCCn2ccnc2)o1 [Example 72, 4-(4-chlorophenyl)-5-[3-(1-imidazolyl)propyl]-2-(2-methyl-1-imidazolyl)oxazole] | 133 to 134 °C | 303% | – | –

The next lines start with results.

Row | melting point | Structure (SMILES) | Insulin secretion-promoting effect (%) (MIN6 cells) | inhibition in vivo at 30 mg/kg (KKA^y mice; 1 h, 60 minutes after administration, read-out: Degree of Blood Glucose Depression (%) After 60 minutes) | inhibition in vivo at 30 mg/kg (KKA^y mice; 2 h, 120 minutes after administration, read-out: Degree of Blood Glucose Depression (%) After 120 minutes)
4 | 94 to 95 °C | Cc1nc(-c2nc(-c3ccc(Cl)cc3)c(CCCCCO)o2)c[nH]1 [Example 83, 4-(4-chlorophenyl)-2-(2-methyl-imidazolyl)-5-oxazolepentanol] | 359% | – | –
5 | 84 to 85 °C | Cc1nccn1-c1nc(-c2ccc(Cl)cc2)c(CCCCn2ccnc2)o1 [Example 89, 4-(4-chlorophenyl)-5-[4-(1-imidazolyl)butyl]-2-(2-methyl-1-imidazolyl)oxazole] | 385% | – | –
